How the values were obtained:
[1] = biological target: T1, recombinant RORγ Ligand Binding Domain (LBD) protein (Homo sapiens, UniProt P51449); assay: Radio-Ligand RORγ Binding Assay (Assay 1); details: cell-free competition with 25-hydroxy[26,27-3H]-cholesterol; read-out: RORγ Binding Ki Range* (nM) (Assay 1)
T1 construct: 6×His; GST
T1 sequence (P51449 269-508 limits assumed): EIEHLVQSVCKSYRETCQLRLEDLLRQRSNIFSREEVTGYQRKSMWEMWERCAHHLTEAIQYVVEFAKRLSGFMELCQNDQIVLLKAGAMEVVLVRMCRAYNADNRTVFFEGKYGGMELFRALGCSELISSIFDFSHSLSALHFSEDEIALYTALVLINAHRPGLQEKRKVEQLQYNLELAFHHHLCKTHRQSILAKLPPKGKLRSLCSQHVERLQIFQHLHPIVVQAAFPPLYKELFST
Protocol: Radio-Ligand RORγ Binding Assay (Assay 1)
The plate was shaken at 700 rpm for 20 min and incubated for 10 min at rt, after which 40 μL of poly-Lys YSi SPA beads (PerkinElmer, Cat. # RPNQ0010) were added to achieve 50 μg of the beads per well. The plate was incubated on an orbital shaker for 20 min and then for 10 min without agitation at rt. SPA signal for tritium beta radiation was registered on PerkinElmer Microbeta plate reader.

[2] = tested on: IL-17A production; assay: Human Whole Blood Assay (Assay 3); assay type: cell-based; details: IL-17A, 50% blood/media, CytoStim, 48 h, read-out: 50% Human Whole Blood Assay IC50, nM* (Assay 3)
Protocol: Human Whole Blood Assay (Assay 3)
Compounds of the invention were tested in the human whole blood assay to measure their effects on IL-17A production as determined by cytokine secretion into 50% blood/media supernatant. Mixtures of sodium heparinized whole blood (isolated from healthy human donors) and the T cell activator CytoStim, in the presence or absence of compound, were plated in sterilized, tissue culture-treated 24-well plates. Specifically, the mixtures in each well were as follows: (1) 500 μL of whole blood, (2) 250 μL of compound diluted into RPMI-1640 media containing 10% HyClone™ FCS (Thermo Fisher Scientific, Waltham, Mass.), Gibco® Pen/Strep and Gibco® NEAA (Life Technologies, Grand Island, N.Y.), and (3) 250 μL of CytoStim (Miltenyi Biotech, Germany) diluted to a final concentration of 10 μL/mL in complete cell culture medium.
IL-17A cytokine expression was determined using 25 μL of the transferred supernatant diluted with 25 μL of Diluent 43 from the Human IL-17A V-PLEX™ kit (cat. # K151RFD-4, Meso Scale Discovery, Rockville, Md.). The assay was performed according to the manufacturer's instructions using included reagents. The IL-17A V-PLEX™ plates were read using the Meso Scale Discovery Imager (Model 1200).

[3] = biological target: T2, full-length RORγt in Jurkat cells (Homo sapiens, UniProt P51449)
T2 sequence (P51449 1-497 isoform P51449-2): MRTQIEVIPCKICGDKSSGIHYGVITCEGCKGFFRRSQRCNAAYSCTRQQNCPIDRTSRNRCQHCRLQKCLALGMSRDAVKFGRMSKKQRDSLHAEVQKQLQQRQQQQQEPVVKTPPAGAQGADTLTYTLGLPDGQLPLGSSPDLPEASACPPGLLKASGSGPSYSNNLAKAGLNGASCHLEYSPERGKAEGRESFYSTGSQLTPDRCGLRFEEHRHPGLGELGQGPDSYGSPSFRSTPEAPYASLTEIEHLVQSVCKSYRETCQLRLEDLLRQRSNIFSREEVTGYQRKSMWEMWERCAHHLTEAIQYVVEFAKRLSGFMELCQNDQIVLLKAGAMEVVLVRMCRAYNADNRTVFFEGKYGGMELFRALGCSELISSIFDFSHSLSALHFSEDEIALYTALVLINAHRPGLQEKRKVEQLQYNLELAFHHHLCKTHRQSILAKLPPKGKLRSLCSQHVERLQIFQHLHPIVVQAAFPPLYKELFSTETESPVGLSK
Protocol: ROR ? t 5×RORE Assay in Jurkat Cells (Assay 2)
Compounds of the present invention were tested for RORγ inverse agonist activity in a cell-based, transcriptional activity assay. […] Luciferase activity in the conditioned supernatants was determined with NanoGlo® assay reagents (Promega, Cat.# N1130).

Row | Compound | Ki [1] | IC50 [2] | IC50 [3]
1 | CCS(=O)(=O)c1ccc([C@H](CO)NC(=O)c2cnc3c(c2)CN(C[C@@H]2CC[C@@H](C(F)(F)F)OC2)[C@H]3C(C)C)nc1 (single isomer, unassigned) [Compound 1] | < 100 nM | < 100 nM | 
2 | CCS(=O)(=O)c1ccc([C@H](CO)NC(=O)c2cnc3c(c2)CN(C[C@@H]2CC[C@@H](C(F)(F)F)OC2)[C@H]3C(C)C)cc1 (single isomer, unassigned) [Compound 2] | < 100 nM | < 100 nM | 
3 | CCS(=O)(=O)c1ccc([C@H](CO)NC(=O)c2cnc3c(c2)CN(C[C@H]2CC[C@H](C(F)(F)F)OC2)[C@H]3C(C)C)cc1 (single isomer, unassigned) [Compound 5] | < 100 nM | < 100 nM | < 100 nM
4 | CC[C@H]1c2ncc(C(=O)N[C@@H](CO)c3ccc(S(=O)(=O)CC)cc3)cc2CN1C[C@H]1CC[C@H](C(F)(F)F)OC1 (single isomer, unassigned) [Compound 10] | < 100 nM | < 100 nM | 
5 | CC[C@H]1c2ncc(C(=O)N[C@@H](CO)c3ccc(S(=O)(=O)CC)cc3)cc2CN1C[C@@H]1CC[C@@H](C(F)(F)F)OC1 (single isomer, unassigned) [Compound 11] | < 100 nM |  | 
6 | CCS(=O)(=O)c1ccc([C@H](CO)NC(=O)c2cnc3c(c2)CN(C[C@@H]2CC[C@@H](C(F)(F)F)CO2)[C@H]3C(C)C)cc1 (single isomer, unassigned) [Compound 14] | < 100 nM | < 100 nM | 
7 | CCS(=O)(=O)c1ccc([C@H](CO)NC(=O)c2cnc3c(c2)CN(C[C@H]2CC[C@H](C(F)(F)F)CO2)[C@H]3C(C)C)cc1 (single isomer, unassigned) [Compound 15] | < 100 nM |  | 
8 | CCS(=O)(=O)c1ccc([C@H](CO)NC(=O)c2cnc3c(c2)CN(C[C@@H]2CC[C@H](C(F)(F)F)CO2)[C@H]3C(C)C)cc1 (single isomer, unassigned) [Compound 18] | < 100 nM |  | 
9 | CCS(=O)(=O)c1ccc([C@H](CO)NC(=O)c2cnc3c(c2)CN(C[C@H]2CC[C@@H](C(F)(F)F)CO2)[C@H]3C(C)C)cc1 (single isomer, unassigned) [Compound 21] | < 100 nM |  | 
10 | CCS(=O)(=O)c1ccc([C@H](NC(=O)c2cnc3c(c2)CN(C[C@H]2CC[C@H](C(F)(F)F)CC2)[C@H]3C(C)C)[C@H](C)O)cc1 (single isomer, unassigned) [Compound 39] | < 100 nM | 100 to 200 nM | 
11 | CCS(=O)(=O)c1ccc([C@@H](NC(=O)c2cnc3c(c2)CN(C[C@H]2CC[C@H](C(F)(F)F)CC2)[C@H]3C(C)C)[C@@H](C)O)cc1 (single isomer, unassigned) [Compound 42] | < 100 nM | > 200 nM | 
12 | CCS(=O)(=O)c1ccc(C(C)(CO)NC(=O)c2cnc3c(c2)CN(C[C@H]2CC[C@H](C(F)(F)F)CC2)[C@H]3C(C)C)cc1 (stereo partly shown) [Compound 7] | < 100 nM |  | 100 to 1000 nM
13 | CC(C)[C@H]1c2ncc(C(=O)N[C@@H](CO)c3ccc(S(C)(=O)=O)cc3)cc2CN1C[C@H]1CC[C@@H](C(F)(F)F)CC1 [Compound 8] | < 100 nM |  | > 1000 nM
14 | CCS(=O)(=O)c1ccc(C(C)(CO)NC(=O)c2cnc3c(c2)CN(C[C@H]2CC[C@H](C(F)(F)F)CC2)[C@@H]3C(C)C)cc1 (stereo partly shown) [Compound 9] | 100 to 1000 nM |  | 
15 | CCS(=O)(=O)c1ccc([C@H](CO)NC(=O)c2cnc3c(c2)CN(CC(F)(F)F)[C@@H]3Cc2ccccc2)cc1 [Compound 19] | < 100 nM |  | 100 to 1000 nM
16 | CCS(=O)(=O)c1ccc([C@H](CO)NC(=O)c2cnc3c(c2)CN(CC(F)(F)F)[C@H]3Cc2ccccc2)cc1 [Compound 22] | < 100 nM |  | < 100 nM
17 | CCS(=O)(=O)c1ccc([C@H](CO)NC(=O)c2cnc3c(c2)CN(C[C@H]2CC[C@H](C(F)(F)F)CC2)C3C(F)(F)F)cc1 (stereo partly shown) [Compound 23] | < 100 nM |  | < 100 nM
18 | CCS(=O)(=O)c1ccc([C@H](CO)NC(=O)c2cnc3c(c2)CN(C[C@H]2CC[C@H](C(F)(F)F)CC2)[C@H]3C)cc1 [Compound 26] | < 100 nM |  | 100 to 1000 nM
19 | CCS(=O)(=O)c1ccc([C@H](CO)NC(=O)c2cnc3c(c2)CN(C[C@H]2CC[C@H](C(F)(F)F)CC2)[C@H]3CC2CCOCC2)cc1 [Compound 27] | < 100 nM |  | < 100 nM
20 | CCS(=O)(=O)c1ccc([C@H](CO)NC(=O)c2cnc3c(c2)CN(C[C@H]2CC[C@H](C(F)(F)F)CC2)[C@@H]3C)cc1 [Compound 28] | > 1000 nM |  | 
21 | CCS(=O)(=O)c1ccc([C@H](CO)NC(=O)c2cnc3c(c2)CN(C[C@H]2CC[C@H](C(F)(F)F)CC2)[C@H]3C2CCOCC2)cc1 [Compound 31] | < 100 nM |  | < 100 nM
22 | CCS(=O)(=O)c1ccc([C@H](CO)NC(=O)c2cnc3c(c2)CN(C)[C@H]3Cc2ccccc2)cc1 [Compound 35] | 100 to 1000 nM |  | 
23 | CCS(=O)(=O)c1ccc([C@H](CO)NC(=O)c2cnc3c(c2)CN(C[C@H]2CC[C@H](C(F)(F)F)CC2)[C@H]3Cc2ccccc2)cc1 [Compound 37] | < 100 nM |  | < 100 nM
24 | CCS(=O)(=O)c1ccc([C@H](CO)NC(=O)c2cnc3c(c2)CN(C[C@H]2CC[C@H](C(F)(F)F)CC2)[C@@H]3Cc2ccccc2)cc1 [Compound 40] | 100 to 1000 nM |  | 
25 | CC[C@H]1c2ncc(C(=O)N[C@@H](CO)c3ccc(S(=O)(=O)CC)cc3)cc2CN1C[C@H]1CC[C@H](C(F)(F)F)CC1 [Compound 41, (S)-7-ethyl-N—((R)-1-(4-(ethylsulfonyl)phenyl)-2-hydroxyethyl)-6-((trans-4-(trifluoromethyl)cyclohexyl)methyl)-6,7-dihydro-5H-pyrrolo[3,4-b]pyridine-3-carboxamide] |  | < 100 nM | 
26 | CCO[C@H]1CC[C@H](CN2Cc3cc(C(=O)N[C@@H](CO)c4ccc(S(=O)(=O)CC)cc4)cnc3[C@@H]2C(C)C)CC1 [Compound 43] | < 100 nM |  | < 100 nM
27 | CCS(=O)(=O)c1ccc([C@@H](CO)NC(=O)c2cnc3c(c2)CN(C[C@H]2CC[C@H](C(F)(F)F)CC2)[C@H]3C(C)C)nc1 [Compound 44] |  | > 200 nM | 
28 | CCS(=O)(=O)c1ccc([C@H](CO)NC(=O)c2cnc3c(c2)CN(C[C@H]2CC[C@H](C(F)(F)F)CC2)[C@H]3C(C)C)nc1 [Compound 45] |  | > 200 nM | 
29 | CCS(=O)(=O)c1ccc([C@H](CO)NC(=O)c2cnc3c(c2)CN(C[C@H]2CC[C@H](C(F)(F)F)CC2)[C@H]3C(C)C)cc1 [Compound 46, (S)—N—((R)-1-(4-(ethylsulfonyl)phenyl)-2-hydroxyethyl)-7-isopropyl-6-((trans-4-(trifluoromethyl)cyclohexyl)methyl)-6,7-dihydro-5H-pyrrolo[3,4-b]pyridine-3-carboxamide] | < 100 nM | < 100 nM | < 100 nM
30 | CCS(=O)(=O)c1ccc([C@@H](CO)NC(=O)c2cnc3c(c2)CN(C[C@H]2CC[C@H](C(F)(F)F)CC2)[C@H]3C(C)C)cc1 [Compound 47] | < 100 nM | > 200 nM | < 100 nM
